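How tested: cells in 96-well plates exposed to compound for 48 hours at five concentrations. GI50: concentration for 50% inhibition of growth. TGI is the concentration that stops growth completely.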
Tests used:
Experiment in all cases: DTP human tumour cell line panel, 48 h
[1] = test system: HCT-15 colon
[2] = test system: CCRF-CEM leukemia
[3] = test system: A549 NSCLC
[4] = test system: NCI-H460 lung
[5] = test system: 786-0 renal
[6] = test system: SK-MEL-28 melanoma
[7] = test system: SF-268 CNS
[8] = test system: SNB-75 CNS
[9] = test system: HS 578T breast
[10] = test system: MOLT-4 leukemia
[11] = test system: NCI-H23 lung
[12] = test system: UACC-62 melanoma
[13] = test system: HCT-116 colon
[14] = test system: OVCAR-3 ovarian
[15] = test system: OVCAR-4 ovarian
[16] = test system: UO-31 renal
[17] = test system: SN12C renal
[18] = test system: MALME-3M melanoma
[19] = test system: NCI/ADR-RES ovarian
[20] = test system: A498 renal
[21] = test system: SK-MEL-5 melanoma
[22] = test system: SF-539 CNS
[23] = test system: PC-3 prostate
[24] = test system: SNB-19 CNS
[25] = test system: SF-295 CNS
[26] = test system: KM12 colon
[27] = test system: HL-60(TB) leukemia
[28] = test system: K-562 leukemia
[29] = test system: SK-MEL-2 melanoma
[30] = test system: MDA-MB-231 breast
[31] = test system: OVCAR-8 ovarian
[32] = test system: IGROV1 ovarian
[33] = test system: RPMI-8226 leukemia
[34] = test system: SK-OV-3 ovarian
[35] = test system: COLO 205 colon
[36] = test system: CAKI-1 renal
[37] = test system: MDA-MB-435
[38] = test system: HCC-2998 colon
[39] = test system: HT29 colon
[40] = test system: M14 melanoma
[41] = test system: HOP-92 NSCLC
[42] = test system: LOX IMVI melanoma
[43] = test system: TK-10 renal
[44] = test system: NCI-H226 lung
[45] = test system: U251 CNS
[46] = test system: T-47D breast
[47] = test system: BT-549 breast
[48] = test system: MCF7 breast
[49] = test system: DU-145 prostate
[50] = test system: NCI-H522 lung
[51] = test system: SW-620 colon
[52] = test system: ACHN renal
[53] = test system: RXF 393 renal
[54] = test system: UACC-257 melanoma
[55] = test system: HOP-62 NSCLC
[56] = test system: OVCAR-5 ovarian

Question: Which GI50 [1] does the source give for `O=C(c1ccc(Cl)cc1)c1no[n+]([O-])c1C(=O)c1ccc(Cl)cc1` here?
Answer: Its GI50 is 12.6 µM.

Question: What about the TGI [1] of the same compound?
Answer: Its TGI is 31 µM.

Question: What about the GI50 [2] of the same compound?
Answer: Its GI50 is 2000 nM.

Question: What about the TGI [2] of the same compound?
Answer: Its TGI is 4.75 µM.

Question: And the GI50 [3]?
Answer: Its GI50 is 23.5 µM.

Question: What about the TGI [3] of the same compound?
Answer: Its TGI is 62.1 µM.

Question: What about the GI50 [4] of the same compound?
Answer: The GI50 was 23.6 µM.

Question: And the TGI [4]?
Answer: Its TGI is 63 µM.

Question: What about the GI50 [5] of the same compound?
Answer: Its GI50 is 3.97 µM.

Question: What about the TGI [5] of the same compound?
Answer: Its TGI is 13.7 µM.

Question: What about the GI50 [6] of the same compound?
Answer: Its GI50 is 14.1 µM.

Question: What about the TGI [6] of the same compound?
Answer: The TGI was 27.8 µM.

Question: And the GI50 [7]?
Answer: The GI50 was 14.1 µM.

Question: What about the TGI [7] of the same compound?
Answer: Its TGI is 33.2 µM.

Question: And the GI50 [8]?
Answer: Its GI50 is 15 µM.

Question: What about the TGI [8] of the same compound?
Answer: Its TGI is 29 µM.

Question: And the GI50 [9]?
Answer: Its GI50 is 21.2 µM.

Question: What about the TGI [9] of the same compound?
Answer: Its TGI is 68.2 µM.

Question: What about the GI50 [10] of the same compound?
Answer: Its GI50 is 4.73 µM.

Question: And the TGI [10]?
Answer: The TGI was 22.1 µM.

Question: And the GI50 [11]?
Answer: The GI50 was 16.5 µM.

Question: What about the TGI [11] of the same compound?
Answer: The TGI was 40.9 µM.

Question: And the GI50 [12]?
Answer: Its GI50 is 13.7 µM.

Question: And the TGI [12]?
Answer: Its TGI is 27.3 µM.

Question: And the GI50 [13]?
Answer: The GI50 was 10.7 µM.

Question: What about the TGI [13] of the same compound?
Answer: The TGI was 27.4 µM.

Question: And the GI50 [14]?
Answer: The GI50 was 6.6 µM.

Question: What about the TGI [14] of the same compound?
Answer: The TGI was 14.5 µM.

Question: And the GI50 [15]?
Answer: Its GI50 is 13.3 µM.

Question: And the TGI [15]?
Answer: The TGI was 27.5 µM.

Question: And the GI50 [16]?
Answer: Its GI50 is 1640 nM.

Question: And the TGI [16]?
Answer: Its TGI is 3.2 µM.

Question: What about the GI50 [17] of the same compound?
Answer: The GI50 was 13 µM.

Question: What about the TGI [17] of the same compound?
Answer: The TGI was 28.3 µM.

Question: What about the GI50 [18] of the same compound?
Answer: The GI50 was 2180 nM.

Question: What about the TGI [18] of the same compound?
Answer: Its TGI is 4.2 µM.

Question: What about the GI50 [19] of the same compound?
Answer: Its GI50 is 20.5 µM.

Question: And the TGI [19]?
Answer: The TGI was 49.8 µM.

Question: What about the GI50 [20] of the same compound?
Answer: Its GI50 is 16.4 µM.

Question: And the TGI [20]?
Answer: Its TGI is 36.4 µM.

Question: And the GI50 [21]?
Answer: The GI50 was 15.9 µM.

Question: What about the TGI [21] of the same compound?
Answer: Its TGI is 30.5 µM.

Question: And the GI50 [22]?
Answer: The GI50 was 3.24 µM.

Question: And the TGI [22]?
Answer: The TGI was 8.17 µM.

Question: What about the GI50 [23] of the same compound?
Answer: The GI50 was 8.76 µM.

Question: What about the TGI [23] of the same compound?
Answer: Its TGI is 22 µM.

Question: And the GI50 [24]?
Answer: The GI50 was 32.7 µM.

Question: What about the TGI [24] of the same compound?
Answer: Its TGI is > 95.8 µM.

Question: And the GI50 [25]?
Answer: Its GI50 is 14.3 µM.

Question: What about the TGI [25] of the same compound?
Answer: The TGI was 29 µM.

Question: What about the GI50 [26] of the same compound?
Answer: The GI50 was 20.3 µM.

Question: And the TGI [26]?
Answer: Its TGI is 45.6 µM.

Question: What about the GI50 [27] of the same compound?
Answer: Its GI50 is 6.06 µM.

Question: What about the TGI [27] of the same compound?
Answer: Its TGI is 20.7 µM.

Question: What about the GI50 [28] of the same compound?
Answer: The GI50 was 5.32 µM.

Question: What about the TGI [28] of the same compound?
Answer: Its TGI is 31.8 µM.

Question: And the GI50 [29]?
Answer: Its GI50 is 14.9 µM.

Question: What about the TGI [29] of the same compound?
Answer: The TGI was 28.7 µM.

Question: What about the GI50 [30] of the same compound?
Answer: The GI50 was 10.9 µM.

Question: And the TGI [30]?
Answer: The TGI was 26.8 µM.

Question: And the GI50 [31]?
Answer: The GI50 was 14.5 µM.

Question: What about the TGI [31] of the same compound?
Answer: The TGI was 33.8 µM.

Question: And the GI50 [32]?
Answer: Its GI50 is 3.87 µM.

Question: And the TGI [32]?
Answer: The TGI was 10.3 µM.

Question: And the GI50 [33]?
Answer: Its GI50 is 4.6 µM.

Question: And the TGI [33]?
Answer: The TGI was 24.4 µM.

Question: And the GI50 [34]?
Answer: Its GI50 is 21 µM.

Question: What about the TGI [34] of the same compound?
Answer: Its TGI is 42.9 µM.

Question: What about the GI50 [35] of the same compound?
Answer: Its GI50 is 14.6 µM.

Question: What about the TGI [35] of the same compound?
Answer: Its TGI is 34.3 µM.

Question: And the GI50 [36]?
Answer: The GI50 was 4.58 µM.

Question: What about the TGI [36] of the same compound?
Answer: Its TGI is 12.2 µM.

Question: And the GI50 [37]?
Answer: The GI50 was 13.5 µM.

Question: And the TGI [37]?
Answer: Its TGI is 26.8 µM.

Question: What about the GI50 [38] of the same compound?
Answer: The GI50 was 21 µM.

Question: And the TGI [38]?
Answer: The TGI was 44.8 µM.

Question: And the GI50 [39]?
Answer: Its GI50 is 11.2 µM.

Question: And the TGI [39]?
Answer: The TGI was 26.4 µM.

Question: What about the GI50 [40] of the same compound?
Answer: Its GI50 is 13.3 µM.

Question: And the TGI [40]?
Answer: The TGI was 27.2 µM.

Question: And the GI50 [41]?
Answer: Its GI50 is 1770 nM.

Question: And the TGI [41]?
Answer: The TGI was 4.26 µM.

Question: What about the GI50 [42] of the same compound?
Answer: The GI50 was 1790 nM.

Question: And the TGI [42]?
Answer: Its TGI is 3.59 µM.

Question: And the GI50 [43]?
Answer: The GI50 was 15 µM.

Question: What about the TGI [43] of the same compound?
Answer: Its TGI is 28.3 µM.

Question: What about the GI50 [44] of the same compound?
Answer: The GI50 was 15.8 µM.

Question: And the TGI [44]?
Answer: Its TGI is 31.1 µM.

Question: And the GI50 [45]?
Answer: The GI50 was 15.8 µM.

Question: And the TGI [45]?
Answer: Its TGI is 30.2 µM.

Question: And the GI50 [46]?
Answer: Its GI50 is 13.1 µM.

Question: And the TGI [46]?
Answer: Its TGI is 43.1 µM.

Question: What about the GI50 [47] of the same compound?
Answer: The GI50 was 9.21 µM.

Question: What about the TGI [47] of the same compound?
Answer: Its TGI is 22 µM.

Question: What about the GI50 [48] of the same compound?
Answer: The GI50 was 11.3 µM.

Question: What about the TGI [48] of the same compound?
Answer: The TGI was 31.7 µM.

Question: And the GI50 [49]?
Answer: Its GI50 is 17 µM.

Question: What about the TGI [49] of the same compound?
Answer: The TGI was 31 µM.

Question: And the GI50 [50]?
Answer: Its GI50 is 1740 nM.

Question: What about the TGI [50] of the same compound?
Answer: Its TGI is 3.37 µM.

Question: And the GI50 [51]?
Answer: The GI50 was 11.8 µM.

Question: What about the TGI [51] of the same compound?
Answer: Its TGI is 25.1 µM.

Question: What about the GI50 [52] of the same compound?
Answer: The GI50 was 5.69 µM.

Question: What about the TGI [52] of the same compound?
Answer: Its TGI is 17.9 µM.

Question: What about the GI50 [53] of the same compound?
Answer: The GI50 was 11.5 µM.

Question: And the TGI [53]?
Answer: Its TGI is 23.8 µM.

Question: And the GI50 [54]?
Answer: Its GI50 is 14.5 µM.

Question: And the TGI [54]?
Answer: The TGI was 27.8 µM.

Question: What about the GI50 [55] of the same compound?
Answer: The GI50 was 28.5 µM.

Question: And the TGI [55]?
Answer: The TGI was > 74.7 µM.

Question: And the GI50 [56]?
Answer: Its GI50 is 16.5 µM.

Question: What about the TGI [56] of the same compound?
Answer: Its TGI is 35.3 µM.
